Test results reported in ChEMBL document CHEMBL5096221, “Discovery of a Highly Potent and Orally Bioavailable STAT3 Dual Phosphorylation Inhibitor for Pancreatic Cancer Treatment” (J Med Chem, 2022).

Experiments:
[1] = target: Signal transducer and activator of transcription 3 (Homo sapiens, UniProt P40763); assay: Inhibition of STAT3 in human HEK293T cells assessed as inhibition of IL-6 stimulated STAT3 phosphorylation by dual-luciferase reporter assay; type: cell-based
[2] = Inhibition of ATP production in human BXPC-3 cells incubated for 20 to 24 hrs by ATP assay kit method; type: functional, cell-based
[3] = tested on: BXPC-3; assay: Anti-proliferative activity against human BXPC-3 cells assessed as cell growth inhibition incubated for 72 hrs by MTS assay; type: functional, cell-based; settings: BXPC-3, 72 h
[4] = tested on: Capan-2; assay: Anti-proliferative activity against human Capan-2 cells assessed as cell growth inhibition incubated for 72 hrs by MTS assay; type: functional, cell-based; settings: Capan-2, 72 h

Chain of Signal transducer and activator of transcription 3 (P40763 whole entry): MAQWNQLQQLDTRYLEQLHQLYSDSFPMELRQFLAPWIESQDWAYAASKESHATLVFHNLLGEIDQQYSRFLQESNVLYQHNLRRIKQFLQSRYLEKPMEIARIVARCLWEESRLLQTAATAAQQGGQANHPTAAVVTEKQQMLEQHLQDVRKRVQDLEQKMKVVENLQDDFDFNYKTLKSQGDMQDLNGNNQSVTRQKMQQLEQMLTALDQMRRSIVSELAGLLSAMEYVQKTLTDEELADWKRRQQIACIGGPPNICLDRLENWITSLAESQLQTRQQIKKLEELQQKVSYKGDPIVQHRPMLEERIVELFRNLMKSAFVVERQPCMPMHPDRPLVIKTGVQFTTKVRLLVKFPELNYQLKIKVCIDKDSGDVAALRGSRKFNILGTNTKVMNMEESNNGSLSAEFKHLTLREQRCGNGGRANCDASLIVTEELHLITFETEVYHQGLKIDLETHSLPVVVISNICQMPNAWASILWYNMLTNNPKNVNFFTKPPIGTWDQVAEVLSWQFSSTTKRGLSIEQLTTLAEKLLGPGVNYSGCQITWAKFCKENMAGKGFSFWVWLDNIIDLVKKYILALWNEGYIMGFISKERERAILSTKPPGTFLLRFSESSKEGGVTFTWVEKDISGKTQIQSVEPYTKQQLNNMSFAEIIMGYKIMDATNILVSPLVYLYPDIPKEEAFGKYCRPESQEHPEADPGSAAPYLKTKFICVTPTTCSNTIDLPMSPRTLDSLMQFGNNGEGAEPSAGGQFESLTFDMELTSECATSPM

Compound	IC50 [1] [nM]	IC50 [2] [nM]	IC50 [3] [nM]	IC50 [4] [nM]
CC(C)C(=O)n1c(C(=O)N2CCN(Cc3ccc(OCC(F)(F)F)cc3)CC2)cc2ccc(Oc3cnc(-c4nc(-c5ccc(C(F)(F)F)cc5)no4)cn3)cc21	337			
Cc1ccc(CN2CCN(C(=O)c3cc4ccc(Oc5cnc(-c6nc(-c7ccc(C(F)(F)F)cc7)no6)cn5)cc4n3C)CC2)cc1	492			
CCn1c(C(=O)N2CCN(Cc3ccc(OCC(F)(F)F)cc3)CC2)cc2ccc(Oc3cnc(-c4nc(-c5ccc(C(F)(F)F)cc5)no4)cn3)cc21	167			
COc1ccccc1-c1noc(-c2cnc(Oc3ccc4cc(C(=O)N5CCN(Cc6ccc(OCC(F)(F)F)cc6)CC5)n(C)c4c3)cn2)n1	45.5	56.5	1.3	8.6
CCN1CCN(C(=O)c2cc3ccc(Oc4cnc(-c5nc(-c6ccc(C(F)(F)F)cc6)no5)cn4)cc3n2C)CC1	1110	1.6	1.9	1
Cn1c(C(=O)N2CCN(Cc3ccc(OCC(F)(F)F)cc3)CC2)cc2ccc(Oc3cnc(-c4nc(-c5cccc(F)c5)no4)cn3)cc21	38.3	19.9	1.9	5
Cn1c(C(=O)N2CCN(Cc3ccc(Cl)cc3)CC2)cc2ccc(Oc3cnc(-c4nc(-c5ccc(C(F)(F)F)cc5)no4)cn3)cc21	649			
COC(=O)CN1CCN(C(=O)c2cc3ccc(Oc4cnc(-c5nc(-c6ccc(C(F)(F)F)cc6)no5)cn4)cc3n2C)CC1	> 1000			
Cn1c(C(=O)N2CCN(C(=O)c3ccc(OCC(F)(F)F)cc3)CC2)cc2ccc(Oc3cnc(-c4nc(-c5ccc(C(F)(F)F)cc5)no4)cn3)cc21	> 1000			
Cn1c(C(=O)N2CCN(Cc3ccccc3OCC(F)(F)F)CC2)cc2ccc(Oc3cnc(-c4nc(-c5ccc(C(F)(F)F)cc5)no4)cn3)cc21	> 1000			
COc1ccc(CN2CCN(C(=O)c3cc4ccc(Oc5cnc(-c6nc(-c7ccc(C(F)(F)F)cc7)no6)cn5)cc4n3C)CC2)cc1	63.6			
COCCn1c(C(=O)N2CCN(Cc3ccc(OCC(F)(F)F)cc3)CC2)cc2ccc(Oc3cnc(-c4nc(-c5ccc(C(F)(F)F)cc5)no4)cn3)cc21	39.9	93.2		
CCCn1c(C(=O)N2CCN(Cc3ccc(OCC(F)(F)F)cc3)CC2)cc2ccc(Oc3cnc(-c4nc(-c5ccc(C(F)(F)F)cc5)no4)cn3)cc21	613			
Cn1c(C(=O)N2CCN(Cc3ccc(OCC(F)(F)F)cc3)CC2)cc2ccc(Oc3cnc(-c4nc(-c5ccc(OC(F)(F)F)cc5)no4)cn3)cc21	39.2	10.5	11.4	6.4
Cn1c(C(=O)N2CCN(Cc3ccc(OCC(F)(F)F)cc3)CC2)cc2ccc(Oc3cnc(-c4nc(-c5ccc(Br)cc5)no4)cn3)cc21	28.1	14.3	2.7	9.3
Cn1c(C(=O)N2CCN(Cc3ccc(Br)cc3)CC2)cc2ccc(Oc3cnc(-c4nc(-c5ccc(C(F)(F)F)cc5)no4)cn3)cc21	836			
Cn1c(C(=O)N2CCN(Cc3ccc(OCC(F)(F)F)c(F)c3)CC2)cc2ccc(Oc3cnc(-c4nc(-c5ccc(C(F)(F)F)cc5)no4)cn3)cc21	101	117		
COc1cccc(-c2noc(-c3cnc(Oc4ccc5cc(C(=O)N6CCN(Cc7ccc(OCC(F)(F)F)cc7)CC6)n(C)c5c4)cn3)n2)c1	19.8	12.6	1.5	6.5
O=C(c1cc2ccc(Oc3cnc(-c4nc(-c5ccc(C(F)(F)F)cc5)no4)cn3)cc2[nH]1)N1CCN(Cc2ccc(OCC(F)(F)F)cc2)CC1	30.5	25		
Cn1c(C(=O)N2CCN(C(=O)CCl)CC2)cc2ccc(Oc3cnc(-c4nc(-c5ccc(C(F)(F)F)cc5)no4)cn3)cc21	> 1000			

Compound	IC50 [1] [nM]	IC50 [2] [nM]	IC50 [3] [nM]	IC50 [4] [nM]
Cn1c(C(=O)N2CCN(C(=O)c3ccc(C(F)(F)F)cc3)CC2)cc2ccc(Oc3cnc(-c4nc(-c5ccc(C(F)(F)F)cc5)no4)cn3)cc21	> 1000			
Cn1c(C(=O)N2CCN(Cc3ccc(OCC(F)(F)F)cc3)CC2)cc2ccc(Oc3cnc(-c4nc(-c5ccccc5)no4)cn3)cc21	217			
COC(=O)Cn1c(C(=O)N2CCN(Cc3ccc(OCC(F)(F)F)cc3)CC2)cc2ccc(Oc3cnc(-c4nc(-c5ccc(C(F)(F)F)cc5)no4)cn3)cc21	> 1000			
Cn1c(C(=O)N2CCN(Cc3ccc(OC(F)(F)F)cc3)CC2)cc2ccc(Oc3cnc(-c4nc(-c5ccc(C(F)(F)F)cc5)no4)cn3)cc21	76.1			
CN1CCN(C(=O)c2cc3ccc(Oc4cnc(-c5nc(-c6ccc(C(F)(F)F)cc6)no5)cn4)cc3n2C)CC1	> 1000			
O=C(c1cc2ccc(Oc3cnc(-c4nc(-c5ccc(C(F)(F)F)cc5)no4)cn3)cc2n1Cc1ccccc1)N1CCN(Cc2ccc(OCC(F)(F)F)cc2)CC1	> 1000			
Cn1c(C(=O)N2CCN(CCc3ccccc3)CC2)cc2ccc(Oc3cnc(-c4nc(-c5ccc(C(F)(F)F)cc5)no4)cn3)cc21	595			
Cn1c(C(=O)N2CCN(Cc3ccc(F)cc3)CC2)cc2ccc(Oc3cnc(-c4nc(-c5ccc(C(F)(F)F)cc5)no4)cn3)cc21	427			
Cn1c(C(=O)N2CCN(Cc3cccc(C(F)(F)F)c3)CC2)cc2ccc(Oc3cnc(-c4nc(-c5ccc(C(F)(F)F)cc5)no4)cn3)cc21	> 1000			
Cn1c(C(=O)N2CCN(Cc3ccc(OCC(F)(F)F)cc3)CC2)cc2ccc(Oc3cnc(-c4nc(-c5ccc(Cl)cc5)no4)cn3)cc21	35.7	25.8	4.8	12.6
C=CCn1c(C(=O)N2CCN(Cc3ccc(OCC(F)(F)F)cc3)CC2)cc2ccc(Oc3cnc(-c4nc(-c5ccc(C(F)(F)F)cc5)no4)cn3)cc21	> 1000			
Cc1cccc(CN2CCN(C(=O)c3cc4ccc(Oc5cnc(-c6nc(-c7ccc(C(F)(F)F)cc7)no6)cn5)cc4n3C)CC2)c1	> 1000			
Cn1c(C(=O)N2CCN(Cc3ccc(OCC(F)(F)F)cc3)CC2)cc2ccc(Oc3cnc(-c4nc(-c5ccccc5F)no4)cn3)cc21	13.1	16.5	1.7	7.7
CCOC(=O)Cn1c(C(=O)N2CCN(Cc3ccc(OCC(F)(F)F)cc3)CC2)cc2ccc(Oc3cnc(-c4nc(-c5ccc(C(F)(F)F)cc5)no4)cn3)cc21	> 1000			
Cn1c(C(=O)N2CCN(Cc3cccc(OCC(F)(F)F)c3)CC2)cc2ccc(Oc3cnc(-c4nc(-c5ccc(C(F)(F)F)cc5)no4)cn3)cc21	> 1000			
Cn1c(C(=O)N2CCN(Cc3ccc(C(F)(F)F)cc3)CC2)cc2ccc(Oc3cnc(-c4nc(-c5ccc(C(F)(F)F)cc5)no4)cn3)cc21	72.4	102		
CCCN1CCN(C(=O)c2cc3ccc(Oc4cnc(-c5nc(-c6ccc(C(F)(F)F)cc6)no5)cn4)cc3n2C)CC1	800			
COc1ccc(CN2CCN(C(=O)c3cc4ccc(Oc5cnc(-c6nc(-c7ccc(C(F)(F)F)cc7)no6)cn5)cc4n3C)CC2)cc1F	134			
Cn1c(C(=O)N2CCN(Cc3ccc(OCC(F)(F)F)cc3)CC2)cc2ccc(Oc3cnc(-c4nc(-c5ccc(C(F)(F)F)cc5)no4)cn3)cc21	22.3	32.5	3.3	8.6
